Reference: patent US20220339150A1, “ENDOCANNABINOID SYSTEM-TARGETING PRODRUGS AND THERAPEUTIC USES THEREOF” (priority 2021, published 2022)
Entries after “also recorded” stand apart in the source; their conditions may differ. Read-outs that look alike come from different tables or passages of the source.

Legend:
[1] = test system: reconstructed human epidermis cells; assay: In vitro skin permeability (SkinEthic Episkin reconstructed human epidermis); type: in vitro ADME; settings: for Skin permeation, applied compound (parent or intact prodrug): receiver 15% HP-beta-CD pH 7.4
Description: (§1) The in vitro permeability studies were carried out in commercial reconstructed human epidermis cells (SkinEthic™ Episkin Reconstructed human epidermis). This model is composed of TR146 cells (derived from a squamous cell carcinoma of the buccal mucosa) cultivated on an inert polycarbonate filter at the air-liquid interface in a chemically defined medium. This model forms an epithelial tissue devoid of stratum corneum, resembling histologically to the mucosa of the oral cavity.
Upon receiving the cells, each insert (0.5 cm^2 or 0.33 cm^2) was placed in a plate containing 800 μL fresh medium at room temperature. The culture dishes were placed in the incubator at 37° C., 5% CO2, and saturated humidity overnight. Next day, the inserts were placed in a plate containing 800 μL 15% HP-β-cyclodextrin in H2O. CBD and CBG, and prodrugs CBDp27 and CBGp1 were dissolved in two different vehicles, 1:1:1 prop gly:water:EtOH/6% Brij 98, and 100% mineral oil. The receiver solution was 15% HP-beta-CD in phosphate buffer (pH 7.4). 400 μL the prodrugs were applied as suspensions (ca. 2 mg/ml). The plates were stirred gently at 37° C. At appropriate intervals, the receptor compartment was sampled (100 μL) and replenished with fresh […] solution each time. The samples were mixed with 100 μL of MeOH, and analyzed for drug (both the parent drug and prodrug) by HPLC-MS.
The flux-values for the rate of delivery of drugs were determined from Fick's law of diffusion.

[2] = Stability in 80% human plasma (serum); type: in vitro ADME; settings: 80% human serum (pH 7.4) at 37° C.
Description: The rates of the degradation of the prodrugs were determined in 80% human serum (pH 7.4) at 37° C. as an indication of the susceptibility of prodrugs to undergo bioconversion after reaching the circulation. The reactions were initiated by adding the first 10 μL of the prodrug stock solution (10 mg/mL in DMSO) to 200 μL preheated sodium phosphate buffer solution (50 mM, pH 7.4, ionic strength 0.5), and then adding 800 μL preheated human serum. The solutions were stirred at a constant temperature of 37° C. At appropriate intervals, 50 μL of samples were mixed with 150 μL of ice-cold MeOH. After immediate mixing and centrifugation (5 min at 14.000 rpm), the resulting clear supernatant was analyzed for the remaining prodrug by HPLC.

[3] = test system: reconstructed human oral buccal epithelium cells (SkinEthic HOE, TR146 cells); assay: In vitro buccal permeability (SkinEthic human oral epithelium); type: in vitro ADME; settings: for Species making up the buccal flux / formation of parent cannabinoid / Flux (buccal) / Flux compared with parent cannabinoid: Table 4; for Species making up the buccal flux / formation of parent cannabinoid / Species making up the buccal flux (parent vs intact prodrug): remark in flux cell; for Flux (buccal): suspension ca. 2 mg/ml in 5% EtOH/phosphate buffer pH 6.8, 37° C., receiver 15% HP-β-cyclodextrin; for Buccal permeation compared with parent cannabinoid (in words): 5% ethanol suspension; for Species making up the buccal flux (parent vs intact prodrug): Table 2; for Flux compared with parent cannabinoid: buccal flux relative to parent
Description: as §1, with “oral buccal epithelium” for “epidermis”, “(SkinEthic™” for “(SkinEthic™ Episkin Reconstructed”, “oral epithelium). The SkinEthic™ HOE” for “epidermis). This”
Upon receiving the cells, each insert (0.5 cm^2 or 0.33 cm^2) was placed in a plate containing 800 μL fresh medium at room temperature. The culture dishes were placed in the incubator at 37° C., 5% CO2, and saturated humidity overnight. Next day, the inserts were placed in a plate containing 800 μL 15% HP-β-cyclodextrin in H2O. The prodrugs were dissolved in 100% EtOH (5% (V/V) final conc.), and then sodium phosphate buffer solution (50 mM, pH 6.8, isotonic, 37° C.) was added (95% (V/V) final conc.). 400 μL of the prodrugs were applied as suspensions (ca. 2 mg/ml). The plates were stirred gently at 37° C. At appropriate intervals, the receptor compartment was sampled (100 μL) and replenished with fresh […] solution each time. The samples were mixed with 100 μL of MeOH, and analyzed for drug (both the parent cannabinoid and the prodrug) by HPLC-MS.
The buccal flux-values for the rate of delivery of drugs were determined from Fick's law of diffusion.

[4] = Stability in aqueous solutions (sodium phosphate buffer, 37° C.); type: physicochemical; settings: for half-life: buffer
Description: […] The solutions of prodrugs were prepared by adding 10 μL of stock solution (10 mg/mL in DMSO) to the preheated buffer. The solutions were stirred at a constant temperature of 37° C. At appropriate intervals, 75 μL of samples were mixed with 75 μL of MeOH and analyzed for remaining prodrug by HPLC.
The pseudo-first-order rate constants (kobs) and half-lives (t1/2) for the degradation of the prodrugs were determined from the linear slopes of the plots by taking the logarithm of the remaining prodrug over time. Equations: kobs=slope/−2.303 and t1/2=ln2/kobs.

[5] = Metabolic stability in human liver microsomes; type: in vitro ADME; settings: for half-life / half-life at 15 µg/mL: both sexes, human, microsomes
Description: The prodrugs were incubated with the human liver microsomes at 37° C. as an indication of the susceptibility of prodrugs to undergo bioconversion in the liver. The reactions were initiated by adding 1.5 μL of the prodrug stock solution (10 mg/mL in DMSO) to a preheated solution consisting of 748.5 μL potassium phosphate buffer solution (20 mM, pH 7.4, ionic strength 0.5), 200 μL NADPH, and 50 μLhuman liver microsomes (mixed gender, 0.5 ml at 20 mg/mL). The solutions were stirred at a constant temperature of 37° C. At appropriate intervals, 50 μLof samples were mixed with 100 μL of ice-cold MeOH. After immediate mixing and centrifugation (5 min at 14.000 rpm), the resulting clear supernatant was analyzed for the remaining prodrug by HPLC.

[6] = vehicle solvent mix (1:1:1 prop gly:water:EtOH/6% Brij 98)
[7] = Table 5, aqueous buffer pH 6.8, 37° C., single determinations
[8] = pH 6.8, Table 5, aqueous buffer pH 6.8, 37° C., single determinations, read-out: Half-life in aqueous solution (converted)
[9] = pH 7.4, Table 5, 37° C., NADPH, read-out: Half-life in human liver microsomes (single determinations) (converted)
[10] = pH 7.4, Table 5, average of determinations, read-out: Half-life in human liver microsomes (avg.) (converted)
[11] = pH 6.8, Table 3, aqueous buffer pH 6.8, 37° C., read-out: Half-life in aqueous solution (converted)
[12] = pH 7.4, Table 3, 37° C., NADPH, read-out: Half-life in human liver microsomes (single determinations) (converted)

## CCCCCc1cc(O)c(C/C=C(\C)CCC=C(C)C)c(OC(=O)C2CCNC2)c1 (stereo not drawn) [CBGp1, (E)-2-(3,7-dimethylocta-2,6-dien-1-yl)-3-hydroxy-5-pentylphenyl pyrrolidine-3-carboxylate]
[1]; mineral oil
  Skin permeation of prodrug relative to parent cannabinoid: ~13 fold
[1]; solvent mix
  Skin permeation of prodrug relative to parent cannabinoid: > 300 fold
[1]; vehicle mineral oil
  Skin permeation, applied compound (parent or intact prodrug): 0.54 ± 0.19 nmol/cm^2/h
[1]; [6]
  Skin permeation, applied compound (parent or intact prodrug): 148.0 ± 40.9 nmol/cm^2/h
[2]; Table 5
  Half-life in serum: 44.4 min
[2]; human, serum, pH 7.4, Table 5
  half-life: 42 min
[3]
  Species making up the buccal flux / formation of parent cannabinoid: (CBG + prodrug)
  Flux (buccal): 111.79 ± 2.59 nmol/cm^2/h
[4]; [7]
  Half-life in aqueous solution: 32.4 min
[4]; [8]
  half-life: 30 min
[5]; Table 5, 37° C., NADPH
  Half-life in human liver microsomes (single determinations): 0.67 h
[5]; [9]
  half-life: 38.4 min
[5]; [10]
  half-life: 39.6 min

## C=C(C)[C@@H]1CCC(C)=C[C@H]1c1c(O)cc(CCCCC)cc1OC(=O)NCCN(C)C [CBDp27, (1′R,2′R)-6-hydroxy-5′-methyl-4-pentyl-2′-(prop-1-en-2-yl)-1′,2′,3′,4′-tetrahydro-[1,1′-biphenyl]-2-yl (2-(dimethylamino)ethyl)carbamate]
[1]; mineral oil
  Skin permeation of prodrug relative to parent cannabinoid: ~140 fold
[1]; solvent mix
  Skin permeation of prodrug relative to parent cannabinoid: ~40 fold
[1]; vehicle mineral oil
  Skin permeation, applied compound (parent or intact prodrug): 3.28 ± 0.15 nmol/cm^2/h
[1]; [6]
  Skin permeation, applied compound (parent or intact prodrug): 47.42 ± 5.23 nmol/cm^2/h
[2]; Table 3
  Half-life in serum: stable
[3]
  Buccal permeation compared with parent cannabinoid (in words): better than that of CBD; also recorded: superior when compared to CBD and other prodrugs
  Species making up the buccal flux (parent vs intact prodrug): CBD + prodrug
[4]; Table 3, aqueous buffer pH 6.8, 37° C.
  Half-life in aqueous solution: 10.2 min
[4]; Table 3, pH 3
  Half-life in aqueous solution: (pH 3 = stable,
[4]; Table 3, pH 4
  Half-life in aqueous solution: pH 4 = stable,
[4]; Table 3, pH 5
  Half-life in aqueous solution: pH 5 = stable,
[4]; [11]
  half-life: 8.4 min
[4]; pH 7.4, Table 3, pH 7.4, read-out: Half-life in aqueous solution (converted)
  half-life: 52.2 min
[4]; pH 8, Table 3, pH 8, read-out: Half-life in aqueous solution (converted)
  half-life: 65.4 min
[4]; pH 9, Table 3, pH 9, read-out: Half-life in aqueous solution (converted)
  half-life: 98.4 min
[5]; Table 3, 37° C., NADPH
  Half-life in human liver microsomes (single determinations): 3.13; 3.13 h
[5]; [12]
  half-life at 15 µg/mL: 188 min
[5]; pH 7.4, Table 3, average of determinations, read-out: Half-life in human liver microsomes (avg.) (converted)
  half-life at 15 µg/mL: 188 min

## CCCCCc1cc(OC(=O)N2CCN(C)CC2)c2c(c1)OC(C)(C)[C@@H]1CCC(C)=C[C@@H]21 [THCp1, (6aR,10aR)-6,6,9-trimethyl-3-pentyl-6a,7,8,10a-tetrahydro-6H-benzo[c]chromen-1-yl 4-methylpiperazine-1-carboxylate]
[2]; Table 5
  Half-life in serum: No degradation
[3]
  Flux compared with parent cannabinoid: No improvement
  Species making up the buccal flux / formation of parent cannabinoid: NO significant formation of THC
  Flux (buccal): 19.22 ± 0.29 (prodrug) nmol/cm^2/h
[4]; [7]
  Half-life in aqueous solution: 24.6 min
[4]; [8]
  half-life: 39.6 min
[5]; Table 5, 37° C., NADPH
  Half-life in human liver microsomes (single determinations): 5.02 h
[5]; [9]
  half-life: 158 min
[5]; [10]
  half-life: 230 min

## CCCCCc1cc(OC(=O)N2CCN(C)CC2)c(C/C=C(\C)CCC=C(C)C)c(OC(=O)N2CCN(C)CC2)c1 [CBGp3, (E)-2-(3,7-dimethylocta-2,6-dien-1-yl)-5-pentyl-1,3-phenylene bis(4-methylpiperazine-1-carboxylate)]
[2]; Table 5
  Half-life in serum: No degradation
[3]
  Flux compared with parent cannabinoid: 2.6-times better
  Species making up the buccal flux / formation of parent cannabinoid: NO significant formation of CBGp2 or
  Flux (buccal): 30.60 ± 2.02 (prodrug) nmol/cm^2/h
[3]; listed as bis-methylpiperazine carbamate prodrug of CBG
  Flux compared with parent cannabinoid: 2.6 times
[4]; [7]
  Half-life in aqueous solution: 22.8 min
[4]; [8]
  half-life: 16.8 min
[5]; [10]
  half-life at 15 µg/mL: 114 min

## C=C(C)[C@@H]1CCC(C)=C[C@H]1c1c(OC(=O)N2CCN(C)CC2)cc(CCCCC)cc1OC(=O)N1CCN(C)CC1 [CBDp14, (1′R,2′R)-5′-methyl-4-pentyl-2′-(prop-1-en-2-yl)-1′,2′,3′,4′-tetrahydro-[1,1′-biphenyl]-2,6-diyl bis(4-methylpiperazine-1-carboxylate)]
[2]; Table 3
  Half-life in serum: stable
[3]
  Buccal permeation compared with parent cannabinoid (in words): better than that of CBD; also recorded: significantly improved permeability compared to CBD
  Species making up the buccal flux (parent vs intact prodrug): only intact prodrug
[4]; Table 3 footnote f, 20% of ethanol in the solution, read-out: Half-life in aqueous solution with ethanol
  half-life: 3000 min
[4]; [11]
  half-life: 150 min
[5]; [12]
  half-life at 15 µg/mL: 51.6 min
